Reference: PubChem BioAssay AID248 (DTP/NCI, 2004)
Several values for one entry are separate records, joined by “and”; a condition that tells them apart may be missing. Equal entries are not always repeated. Inconclusive results and toxic doses are left out. No stated cut-off is given here; in the data, active means T/C of 150% or more; inactive means T/C below 125%.

Test system: L1210 leukemia ip in BDF1 mice, survival T/C
Assay: NCI In Vivo Anticancer Drug Screen. Data for tumor model L1210 Leukemia (intraperitoneal) in B6D2F1 (BDF1) mice
Conditions: endpoint: mean survival time, higher = longer survival
Outline: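 Transplanted-tumor mice were given test agent; controls received vehicle only. Survival readings from the two groups were divided (treated over control).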

[1] = dose: 100.0 mg/kg/injection, schedule: Q01DX001 (ip), vehicle: saline
[2] = dose: 100.0 mg/kg/injection, schedule: Q01DX009 (ip), vehicle: saline
[3] = dose: 200.0 mg/kg/injection, schedule: Q01DX001 (ip), vehicle: saline
[4] = dose: 200.0 mg/kg/injection, schedule: Q01DX009 (ip), vehicle: saline
[5] = dose: 400.0 mg/kg/injection, schedule: Q01DX001 (ip), vehicle: saline
[6] = dose: 100.0 mg/kg/injection, schedule: Q01DX009 (ip), vehicle: saline with Tween-80
[7] = dose: 200.0 mg/kg/injection, schedule: Q01DX009 (ip), vehicle: saline with Tween-80
[8] = dose: 100.0 mg/kg/injection, schedule: Q01DX009 (ip), vehicle: Klucel (hydroxypropylcellulose) (HPC)
[9] = dose: 100.0 mg/kg/injection, schedule: Q04DX003 (ip), vehicle: Klucel (hydroxypropylcellulose) (HPC)
[10] = dose: 200.0 mg/kg/injection, schedule: Q04DX003 (ip), vehicle: Klucel (hydroxypropylcellulose) (HPC)
[11] = dose: 400.0 mg/kg/injection, schedule: Q04DX003 (ip), vehicle: Klucel (hydroxypropylcellulose) (HPC)
[12] = dose: 100.0 mg/kg/injection, schedule: Q04DX002 (ip), vehicle: Klucel (hydroxypropylcellulose) (HPC)
[13] = dose: 200.0 mg/kg/injection, schedule: Q04DX002 (ip), vehicle: Klucel (hydroxypropylcellulose) (HPC)
[14] = dose: 400.0 mg/kg/injection, schedule: Q04DX002 (ip), vehicle: Klucel (hydroxypropylcellulose) (HPC)
[15] = dose: 100.0 mg/kg/injection, schedule: Q01DX001 (ip), vehicle: Klucel (hydroxypropylcellulose) (HPC)
[16] = dose: 200.0 mg/kg/injection, schedule: Q01DX001 (ip), vehicle: Klucel (hydroxypropylcellulose) (HPC)
[17] = dose: 12.5 mg/kg/injection, schedule: Q04DX003 (ip), vehicle: saline
[18] = dose: 25.0 mg/kg/injection, schedule: Q04DX003 (ip), vehicle: saline
[19] = dose: 50.0 mg/kg/injection, schedule: Q04DX003 (ip), vehicle: saline
[20] = dose: 100.0 mg/kg/injection, schedule: Q04DX003 (ip), vehicle: saline
[21] = dose: 25.0 mg/kg/injection, schedule: Q01DX009 (ip), vehicle: Klucel (hydroxypropylcellulose) (HPC)

Measured: T/C

CC(N(N=O)c1ccccc1)S(=O)(=O)O (stereo not given)
inactive: [1] 104 % of control | [2] 92 % of control | [3] 96 % of control | [4] 99 % of control | [5] 98 % of control

O=S(=O)(Cl)c1ccc2cc3ccccc3cc2c1
inactive: dose: 50.0 mg/kg/injection, schedule: Q01DX009 (ip), vehicle: saline with Tween-80 98 % of control | [6] 96 % of control | [7] 102 % of control

Nc1ccc(S(=O)(=O)c2cc(CC(N)C(=O)O)cc(O)c2O)cc1 (stereo not given)
inactive: dose: 87.5 mg/kg/injection, schedule: Q01DX009 (ip), vehicle: saline 98 % of control | dose: 175.0 mg/kg/injection, schedule: Q01DX009 (ip), vehicle: saline 96 % of control | dose: 350.0 mg/kg/injection, schedule: Q01DX009 (ip), vehicle: saline 86 % of control

CCCCCCCCOc1ccc(C(=O)O)cc1
inactive: [6] 96 % of control | [7] 96 % of control | dose: 400.0 mg/kg/injection, schedule: Q01DX009 (ip), vehicle: saline with Tween-80 92 % of control

CN(C)c1cc(Br)c(C=O)cc1[N+](=O)[O-]
inactive: [8] 94 % of control | [9] 102 % of control | dose: 200.0 mg/kg/injection, schedule: Q01DX009 (ip), vehicle: Klucel (hydroxypropylcellulose) (HPC) 103 % of control | [10] 93 % of control | dose: 400.0 mg/kg/injection, schedule: Q01DX009 (ip), vehicle: Klucel (hydroxypropylcellulose) (HPC) 92 % of control | [11] 98 % of control

CCSC1C(O)C(C(O)CO)OC1n1cc(C)c(=O)[nH]c1=O (stereo not given)
inactive: dose: 100.0 mg/kg/injection, schedule: Q01DX005 (ip), vehicle: saline 102 % of control | dose: 200.0 mg/kg/injection, schedule: Q01DX005 (ip), vehicle: saline 107 % of control

CCO/C(=C\[P+](c1ccccc1)(c1ccccc1)c1ccccc1)c1ccccc1
inactive: dose: 5.0 mg/kg/injection, schedule: Q01DX001 (ip), vehicle: saline 90 % of control | dose: 10.0 mg/kg/injection, schedule: Q01DX001 (ip), vehicle: saline 93 % of control | dose: 20.0 mg/kg/injection, schedule: Q01DX001 (ip), vehicle: saline 95 % of control | dose: 40.0 mg/kg/injection, schedule: Q01DX001 (ip), vehicle: saline 95 % of control

CC(C)CNC(=S)Nc1ccccc1
inactive: dose: 75.0 mg/kg/injection, schedule: Q01DX001 (ip), vehicle: other 98 % of control | dose: 150.0 mg/kg/injection, schedule: Q01DX001 (ip), vehicle: other 98 % of control | dose: 300.0 mg/kg/injection, schedule: Q01DX001 (ip), vehicle: other 102 % of control

O=C(O)c1cc(S(=O)(=O)O)cc(Br)c1O
inactive: [12] 95 % of control | [13] 103 % of control | [14] 89 % of control

CC(C)C(=O)OCC1OC(n2cnc3c(=S)nc[nH]c32)C(OC(=O)C(C)C)C1OC(=O)C(C)C (stereo not given)
inactive: dose: 2.5 mg/kg/injection, schedule: Q01DX Z (oral), vehicle: carboxymethylcellulose (CMC) 101 % of control | dose: 5.0 mg/kg/injection, schedule: Q01DX Z (oral), vehicle: carboxymethylcellulose (CMC) 95 % of control | dose: 10.0 mg/kg/injection, schedule: Q01DX Z (oral), vehicle: carboxymethylcellulose (CMC) 97 % of control | dose: 20.0 mg/kg/injection, schedule: Q01DX Z (oral), vehicle: carboxymethylcellulose (CMC) 100 % of control

CNC(=O)Oc1ccccc1CCl
inactive: dose: 50.0 mg/kg/injection, schedule: Q01DX001 (ip), vehicle: Klucel (hydroxypropylcellulose) (HPC) 97 % of control | [15] 97 % of control | [16] 92 % of control

CC(N)c1ccccc1Cl (stereo not given)
inactive: [17] 107 % of control | [18] 96 % of control | [19] 96 % of control

CNc1c([N+](=O)[O-])ncn1C
inactive: [17] 98 % of control | [18] 94 % of control | [19] 91 % of control | [20] 97 % of control

CCCCCCCCCCCc1cccc2ccccc12
inactive: dose: 50.0 mg/kg/injection, schedule: Q04DX002 (ip), vehicle: saline with Tween-80 92 % of control | dose: 100.0 mg/kg/injection, schedule: Q04DX002 (ip), vehicle: saline with Tween-80 89 % of control | dose: 200.0 mg/kg/injection, schedule: Q04DX002 (ip), vehicle: saline with Tween-80 92 % of control | dose: 400.0 mg/kg/injection, schedule: Q04DX002 (ip), vehicle: saline with Tween-80 95 % of control

O=C(O)CCCN1C/C(=C\c2ccccc2)C(=O)C1=O
inactive: [20] 104 % of control | dose: 200.0 mg/kg/injection, schedule: Q04DX003 (ip), vehicle: saline 101 % of control | dose: 400.0 mg/kg/injection, schedule: Q04DX003 (ip), vehicle: saline 98 % of control

NC(CSS(=O)(=O)O)=NCCCc1ccccc1
inactive: dose: 12.5 mg/kg/injection, schedule: Q04DX002 (ip), vehicle: Klucel (hydroxypropylcellulose) (HPC) 97 % of control | dose: 25.0 mg/kg/injection, schedule: Q04DX002 (ip), vehicle: Klucel (hydroxypropylcellulose) (HPC) 108 % of control

CCCCC(=O)NC1=CC(=O)c2ccccc2C1=O
inactive: dose: 75.0 mg/kg/injection, schedule: Q01DX001 (ip), vehicle: saline 95 % of control | dose: 150.0 mg/kg/injection, schedule: Q01DX001 (ip), vehicle: saline 91 % of control

Cc1ccc(C)c(NC(=O)Oc2ccc(Cl)cc2Cl)c1
inactive: [21] 87 % of control | dose: 50.0 mg/kg/injection, schedule: Q01DX009 (ip), vehicle: Klucel (hydroxypropylcellulose) (HPC) 100 % of control | [8] 110 % of control | [9] 90 % of control | [10] 94 % of control | [11] 106 % of control

C/C=C/C(=O)NCC(=O)O
inactive: [1] 90 % of control | [3] 97 % of control | [5] 103 % of control

CC[CH2][Sn]([CH2]CC)([CH2]CC)[CH2]CC
inactive: dose: 50.0 mg/kg/injection, schedule: Q01DX001 (ip), vehicle: carboxymethylcellulose (CMC) 95 % of control | dose: 100.0 mg/kg/injection, schedule: Q01DX001 (ip), vehicle: carboxymethylcellulose (CMC) 86 % of control

CCOC(=O)CCN(CCC(=O)OCC)C1CC1c1ccccc1 (stereo not given)
inactive: [9] 100 % of control | [10] 95 % of control | [11] 100 % of control

COC(=O)C1(c2ccccc2)C(c2ccccc2)=C(c2ccccc2)C(c2ccccc2)CC1c1ccccc1 (stereo not given)
inactive: [12] 103 % of control | [13] 96 % of control | [14] 92 % of control

Cc1cccc(Cl)c1NC(=O)CN(C)C
inactive: [1] 104 % of control | [3] 98 % of control

CCCCCCCCCCCc1nc(N)nc(NCCc2ccccc2)n1
inactive: dose: 12.5 mg/kg/injection, schedule: Q01DX009 (ip), vehicle: Klucel (hydroxypropylcellulose) (HPC) 95 % of control | [21] 89 % of control | dose: 50.0 mg/kg/injection, schedule: Q04DX002 (ip), vehicle: Klucel (hydroxypropylcellulose) (HPC) 87 % of control | [12] 93 % of control | [13] 97 % of control

CN=C(NC)c1ccc(NC(=O)c2cccc(C(=O)Nc3ccc(C(=NC)NC)cc3)c2)cc1
inactive: dose: 15.0 mg/kg/injection, schedule: Q01DX Z (ip), vehicle: saline 110 % of control | dose: 30.0 mg/kg/injection, schedule: Q01DX Z (ip), vehicle: saline 119 % of control | dose: 60.0 mg/kg/injection, schedule: Q01DX Z (ip), vehicle: saline 86 % of control

c1cc[n+](Cc2nc3ccccc3[nH]2)cc1
inactive: [1] 102 % of control and 95 % of control

CCCC(CCC)=NCCN=C(CCC)CCC
inactive: [2] 97 % of control | [4] 94 % of control

COC(=O)C12c3ccccc3C(c3ccccc31)c1c(N=O)ccc(NO)c12
inactive: dose: 25.0 mg/kg/injection, schedule: Q04DX003 (ip), vehicle: Klucel (hydroxypropylcellulose) (HPC) 100 % of control | dose: 50.0 mg/kg/injection, schedule: Q04DX003 (ip), vehicle: Klucel (hydroxypropylcellulose) (HPC) 97 % of control | [15] 99 % of control | [9] 94 % of control | [16] 90 % of control | [10] 102 % of control | dose: 400.0 mg/kg/injection, schedule: Q01DX001 (ip), vehicle: Klucel (hydroxypropylcellulose) (HPC) 89 % of control | [11] 105 % of control
